According to ChEMBL document CHEMBL1149138 (J Med Chem, 2004):

Each compound was assayed on Mus musculus (assay: Maximum weight lose in influenza A infected mice when treated by the compound at a dose of 10 mg/kg/day b.i.d.).
Assay type: functional
CC(=O)NC(C(=O)O)[C@@H]1CCC(=C2SCCCS2)C1 (mixture of isomers; form 1) was tested, and the Max weight loss was 3.1%.

The compounds below were run on Mus musculus (assay: Maximum weight lose in influenza A infected mice when treated by the compound at a dose of 0 mg/kg/day b.i.d.).
Assay type: functional
Work on CC(=O)NC(C(=O)O)[C@@H]1CCC(=C2SCCCS2)C1 (mixture of isomers; form 1) yielded a Max weight loss of 27.5%.

The compounds below were run on Mus musculus (assay: Maximum weight lose in influenza A infected mice when treated by the compound at a dose of 0.1 mg/kg/day b.i.d.).
Assay type: functional
In the case of CC(=O)NC(C(=O)O)[C@@H]1CCC(=C2SCCCS2)C1 (mixture of isomers; form 1), the Max weight loss is reported as 12.7%.

These compounds were tested on Mus musculus (assay: Maximum weight lose in influenza A infected mice when treated by the compound at a dose of 1 mg/kg/day b.i.d.).
Assay type: functional
Work on CC(=O)NC(C(=O)O)[C@@H]1CCC(=C2SCCCS2)C1 (mixture of isomers; form 1) yielded a Max weight loss of 8.7%.

What follows are compounds tested against Neuraminidase (Influenza A virus (A/Puerto Rico/8/1934(H1N1)), UniProt P03468).
Neuraminidase (Influenza A virus (A/Puerto Rico/8/1934(H1N1)), UniProt P03468), sequence (P03468 whole entry): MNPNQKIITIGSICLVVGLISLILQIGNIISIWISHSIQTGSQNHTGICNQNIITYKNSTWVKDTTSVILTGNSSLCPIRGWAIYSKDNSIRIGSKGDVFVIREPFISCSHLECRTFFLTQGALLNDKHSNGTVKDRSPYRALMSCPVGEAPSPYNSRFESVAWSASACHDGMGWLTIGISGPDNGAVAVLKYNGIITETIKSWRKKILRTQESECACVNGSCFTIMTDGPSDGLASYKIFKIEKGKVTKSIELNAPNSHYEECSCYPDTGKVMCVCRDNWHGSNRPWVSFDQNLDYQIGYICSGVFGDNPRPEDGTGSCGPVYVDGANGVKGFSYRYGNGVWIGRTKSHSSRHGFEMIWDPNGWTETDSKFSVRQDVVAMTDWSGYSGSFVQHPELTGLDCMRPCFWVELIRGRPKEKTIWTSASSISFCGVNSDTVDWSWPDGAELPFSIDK
CCCN(CCC)C(=O)C(NC(C)=O)[C@H]1C[C@@](O)(C(=O)O)C[C@@H]1N=C(N)N (stereo partly specified) was tested, and the IC50 was 0.47 µM.
CCN(CC)C(=O)C(NC(C)=O)[C@H]1C[C@@H](C(=O)O)C[C@@H]1N=C(N)N (stereo partly specified) gave an IC50 of 0.007 µM.
With CCN(CC)C(=O)C(NC(C)=O)[C@H]1C[C@@](O)(C(=O)O)C[C@@H]1N=C(N)N (stereo partly specified) the IC50 was 1.6 µM.
Work on CCCN(CCC)C(=O)C(NC(C)=O)[C@H]1C[C@](O)(C(=O)O)C[C@@H]1N=C(N)N (mixture of isomers) yielded an IC50 of 2300 µM.
CC(=O)NC(C(=O)O)[C@@H]1CCC(=C2SCCCS2)C1 (mixture of isomers; form 1) showed an IC50 of 0.007 µM.
In the case of CC(=O)NC(C(=O)O)[C@@H]1CCC(=C2SCCCS2)C1 (mixture of isomers; form 2), the IC50 is reported as 0.06 µM.
For CC(=O)NC(C(=O)O)[C@@H]1CCC(=C2SCCCS2)C1 (single isomer, unassigned), the IC50 was 0.043 µM.
Work on CC(=O)NC(C(=O)O)[C@@H]1CCC(=C2SCCCS2)C1 (stereo in doubt) yielded an IC50 of 25 µM.
CCCN(CCC)C(=O)C(NC(C)=O)[C@H]1C[C@](O)(C(=O)O)C[C@@H]1N=C(N)N (stereo in doubt) gave an IC50 of 4.9 µM.

The compounds below were run against Neuraminidase (Influenza B virus (strain B/Lee/1940), UniProt P03474).
Neuraminidase, sequence (P03474 whole entry): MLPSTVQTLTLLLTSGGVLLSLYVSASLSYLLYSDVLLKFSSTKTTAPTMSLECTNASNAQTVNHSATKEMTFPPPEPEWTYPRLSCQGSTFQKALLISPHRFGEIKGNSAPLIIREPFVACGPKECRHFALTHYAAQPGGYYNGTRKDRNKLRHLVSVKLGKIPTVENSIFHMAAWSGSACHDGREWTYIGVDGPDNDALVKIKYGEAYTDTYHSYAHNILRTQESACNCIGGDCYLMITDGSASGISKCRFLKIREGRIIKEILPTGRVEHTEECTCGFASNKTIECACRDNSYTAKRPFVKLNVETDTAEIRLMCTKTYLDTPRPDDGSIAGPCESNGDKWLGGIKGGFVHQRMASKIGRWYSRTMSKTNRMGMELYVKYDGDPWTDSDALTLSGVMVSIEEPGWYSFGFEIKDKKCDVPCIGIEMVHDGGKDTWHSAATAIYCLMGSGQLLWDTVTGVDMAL
Design: species or system Influenza B virus (strain: B/Lee/40)
CC(=O)NC(C(=O)N1CC(C)CC(C)C1)[C@H]1CC(C(=O)O)C[C@@H]1N=C(N)N (stereo partly specified) gave an IC50 greater than 100 µM.
In the case of C=CCNC(=O)C(NC(C)=O)[C@H]1CC(C(=O)O)C[C@@H]1N=C(N)N (stereo partly specified), the IC50 is reported as 4.3 µM.
Work on CCCN(CCC)C(=O)C(NC(C)=O)[C@H]1CC(C(=O)O)C[C@@H]1N=C(N)N (stereo partly specified) yielded an IC50 of 9.2 µM.
CCCN(CC1CC1)C(=O)C(NC(C)=O)[C@H]1CC(C(=O)O)C[C@@H]1N=C(N)N (stereo partly specified) was tested, and the IC50 was 24 µM.
CCCCNC(=O)C(NC(C)=O)[C@H]1CC(C(=O)O)C[C@@H]1N=C(N)N (stereo partly specified) was tested, and the IC50 was 46.8 µM.
CC(=O)NC(C(=O)N1CCOCC1)[C@H]1CC(C(=O)O)C[C@@H]1N=C(N)N (stereo partly specified) showed an IC50 of 7.8 µM.
CC(=O)NC(C(=O)N1CCCCCC1)[C@H]1CC(C(=O)O)C[C@@H]1N=C(N)N (stereo partly specified) showed an IC50 of 25.3 µM.
CCC1CCCCN1C(=O)C(NC(C)=O)[C@H]1CC(C(=O)O)C[C@@H]1N=C(N)N (stereo partly specified) was tested, and the IC50 was 3.1 µM.
Work on CC(=O)NC(C(=O)N1CCC(C)CC1)[C@H]1CC(C(=O)O)C[C@@H]1N=C(N)N (stereo partly specified) yielded an IC50 of 42.5 µM.
With CCN(CCO)C(=O)C(NC(C)=O)[C@H]1CC(C(=O)O)C[C@@H]1N=C(N)N (stereo partly specified) the IC50 was greater than 30 µM.
CC(=O)NC(C(=O)N1CCC1)[C@H]1CC(C(=O)O)C[C@@H]1N=C(N)N (stereo partly specified) was tested, and the IC50 was 8.4 µM.
For CC(=O)NC(C(=O)N1CCCCC1C)[C@H]1CC(C(=O)O)C[C@@H]1N=C(N)N (stereo partly specified), the IC50 was 10.5 µM.
CCCCCCN(C)C(=O)C(NC(C)=O)[C@H]1CC(C(=O)O)C[C@@H]1N=C(N)N (stereo partly specified) showed an IC50 greater than 30 µM.
With CCN(CC)C(=O)C(NC(C)=O)[C@H]1C[C@@H](C(=O)O)C[C@@H]1N=C(N)N (stereo partly specified) the IC50 was 1.5 µM.
CCCC1CCCCN1C(=O)C(NC(C)=O)[C@H]1CC(C(=O)O)C[C@@H]1N=C(N)N (stereo partly specified) was tested, and the IC50 was 14.5 µM.
For CCN(CC)C(=O)C(NC(C)=O)[C@H]1CC(C(=O)O)C[C@@H]1N=C(N)N (stereo partly specified), the IC50 was 3 µM.
CCCCN(C)C(=O)C(NC(C)=O)[C@H]1CC(C(=O)O)C[C@@H]1N=C(N)N (stereo partly specified) was tested, and the IC50 was 18.4 µM.
COCC(C)NC(=O)C(NC(C)=O)[C@H]1CC(C(=O)O)C[C@@H]1N=C(N)N (stereo partly specified) showed an IC50 of 25.1 µM.
In the case of CC(=O)NC(C(=O)N1CCSCC1)[C@H]1CC(C(=O)O)C[C@@H]1N=C(N)N (stereo partly specified), the IC50 is reported as 29.1 µM.
Work on CC(=O)NC(C(=O)NC(C)CCc1ccccc1)[C@H]1CC(C(=O)O)C[C@@H]1N=C(N)N (stereo partly specified) yielded an IC50 of 12.5 µM.
Work on CCC(C)NC(=O)C(NC(C)=O)[C@H]1CC(C(=O)O)C[C@@H]1N=C(N)N (stereo partly specified) yielded an IC50 of 16.5 µM.
For CC(=O)NC(C(=O)N1CCCC1)[C@H]1CC(C(=O)O)C[C@@H]1N=C(N)N (stereo partly specified), the IC50 was 24 µM.
Compound CCCC(C)NC(=O)C(NC(C)=O)[C@H]1CC(C(=O)O)C[C@@H]1N=C(N)N (stereo partly specified) has an IC50 of 12.2 µM.
Work on CCCCC(C)NC(=O)C(NC(C)=O)[C@H]1CC(C(=O)O)C[C@@H]1N=C(N)N (stereo partly specified) yielded an IC50 of 37 µM.
Work on CCN(Cc1ccccc1)C(=O)C(NC(C)=O)[C@H]1CC(C(=O)O)C[C@@H]1N=C(N)N (stereo partly specified) yielded an IC50 greater than 30 µM.
Work on CC(=O)NC(C(=O)N(C)CCc1ccccc1)[C@H]1CC(C(=O)O)C[C@@H]1N=C(N)N (stereo partly specified) yielded an IC50 of 26.7 µM.
Compound CCC(CC)NC(=O)C(NC(C)=O)[C@H]1CC(C(=O)O)C[C@@H]1N=C(N)N (stereo partly specified) has an IC50 of 3 µM.
With CCC(COC)NC(=O)C(NC(C)=O)[C@H]1CC(C(=O)O)C[C@@H]1N=C(N)N (stereo partly specified) the IC50 was 20 µM.
CC(=O)NC(C(=O)NC(C)CC(C)C)[C@H]1CC(C(=O)O)C[C@@H]1N=C(N)N (stereo partly specified) showed an IC50 of 11.4 µM.
With CCCN(CC)C(=O)C(NC(C)=O)[C@H]1CC(C(=O)O)C[C@@H]1N=C(N)N (stereo partly specified) the IC50 was 7 µM.
Work on CC(=O)NC(C(=O)NCCc1ccccc1)[C@H]1CC(C(=O)O)C[C@@H]1N=C(N)N (stereo partly specified) yielded an IC50 of 70.5 µM.
Work on CC(=O)NC(C(=O)N1CCCCC1)[C@H]1CC(C(=O)O)C[C@@H]1N=C(N)N (stereo partly specified) yielded an IC50 of 6.9 µM.
CC(=O)NC(C(=O)NC(C)C)[C@H]1CC(C(=O)O)C[C@@H]1N=C(N)N (stereo partly specified) showed an IC50 of 4.6 µM.
With CC(=O)NC(C(=O)N(C)C(C)C)[C@H]1CC(C(=O)O)C[C@@H]1N=C(N)N (stereo partly specified) the IC50 was 6.8 µM.
CC(=O)NC(C(=O)N1CCCC(C)C1)[C@H]1CC(C(=O)O)C[C@@H]1N=C(N)N (stereo partly specified) was tested, and the IC50 was greater than 10 µM.
Compound CCCCC(CC)NC(=O)C(NC(C)=O)[C@H]1CC(C(=O)O)C[C@@H]1N=C(N)N (stereo partly specified) has an IC50 of 16 µM.
Compound CCCN(C)C(=O)C(NC(C)=O)[C@H]1CC(C(=O)O)C[C@@H]1N=C(N)N (stereo partly specified) has an IC50 of 6.2 µM.
Compound CCNC(=O)C(NC(C)=O)[C@H]1CC(C(=O)O)C[C@@H]1N=C(N)N (stereo partly specified) has an IC50 of 3.1 µM.
C=CCN(C)C(=O)C(NC(C)=O)[C@H]1CC(C(=O)O)C[C@@H]1N=C(N)N (stereo partly specified) showed an IC50 of 11.7 µM.
Compound CC(=O)NC(C(=O)O)[C@@H]1CCC(=C2SCCCS2)C1 (mixture of isomers; form 1) has an IC50 of 3 µM.
In the case of CC(=O)NC(C(=O)O)[C@@H]1CCC(=C2SCCCS2)C1 (mixture of isomers; form 2), the IC50 is reported as 3 µM.
CC(=O)NC(C(=O)O)[C@@H]1CCC(=C2SCCCS2)C1 (single isomer, unassigned) gave an IC50 of 8.6 µM.
Work on CCCN(CCC)C(=O)C(NC(C)=O)[C@H]1C[C@](O)(C(=O)O)C[C@@H]1N=C(N)N (stereo in doubt) yielded an IC50 of 33 µM.
